Residues, ends and D or L forms follow the SMILES beside them.
Experiment: Cryo-transmission electron microscopy of aqueous peptide solutions (self-assembly)
Assay type: physicochemical
Details: Cryo-TEM, aqueous solution 5 mg/ml, pH 7
Method: Cryo-transmission electron microscopy experiments were performed on aqueous solution of the different peptides at a concentration of 5 mg/ml. In order to solubilize these peptides in water, it was necessary to deprotonate the carboxylic groups by adjusting the pH with a solution of sodium hydroxide 0.1N. The oligopeptides investigated start to be soluble in water at pH 5 to 6, depending on the amino acid sequence. All the experiments presented in this work were carried out using peptide solutions at pH 7. […] The cylindrical assemblers present a three-dimensional transient network somehow similar to flexible polymers in their semidilute or concentrated solutions^22. It should be pointed out that, in the electron micrographs, only a two-dimensional projection of the peptides nanotubes could be imaged. The network below and above a defined point in the space could be relatively distant in three dimensions, while appearing superimposed in the two-dimensional projection. […] These self-assemblies have high axial ratios and extend in length to several tens of micrometers. Additionally, one can easily identify many three-fold junctions or branchings connecting the nanotubes and thus forming the final network. […] Alternatively, two nanotubes could fuse together to form a tentative 4-arm branch. It has been shown that this kind of branching is energetically unstable and, thus, those observed in FIG. 3 are most likely due to the 2-D representation of a spatial network.
In fact, one can easily recognize nanotubes of about 50 nm diameter linked by an increased numbers of three-fold junction. As a result, the branches are more abundant than those observed in the samples VVVVVVD (V6D) (SEQ ID NO: 36), […] (SEQ ID NO: 38) and AAAAAAD (A6D) (SEQ ID NO: 37). They have also a smaller axial ratio and a much smaller average diameter of about 10 to 15 nm. […] (SEQ ID NO: 39) is the most hydrophobic compound with the tail constituted of six leucines. […] These molecular assemblies are very similar to threadlike micellar systems made from traditional amphiphilic molecules such as cetyltrimethylammonium bromide (CTAB)^29-30. It should be noted that a large number of vesicle-like spherical assemblies also appear in the TEM micrograph.
Cryo-TEM micrograph at high resolution provides a detailed structure of the peptide nanotubes formed by AAAAAAD (SEQ ID NO: 35) (see FIG. 4). […] Additionally, helical pitches between 150 and 200 nm, depending on the nanotubes diameter, were also observed. Similar results have been documented with hollow cylinders formed of bilayer membrane of diacetylenic lipids^31. Theories based on molecular chirality have been developed to explain the presence of helical markings that wind around the cylinders^32.

With `CC(=O)N[C@@H](C)C(=O)N[C@@H](C)C(=O)N[C@@H](C)C(=O)N[C@@H](C)C(=O)N[C@@H](C)C(=O)N[C@@H](C)C(=O)N[C@@H](CC(=O)O)C(=O)N[C@@H](CC(=O)O)C(=O)O` [A6D2, [Acetyl]-AAAAAADD-CO2] (Ac-AAAAAADD-OH) the nanotube diameter was “about 50 nm”.
With `CC(=O)N[C@@H](C)C(=O)N[C@@H](C)C(=O)N[C@@H](C)C(=O)N[C@@H](C)C(=O)N[C@@H](C)C(=O)N[C@@H](C)C(=O)N[C@@H](CC(=O)O)C(=O)O` [A6D, [Acetyl]-AAAAAAD-CO2] (Ac-AAAAAAD-OH) the “morphology of the self-assemblies” value was “cylindrical morphologies” and the “morphology of the self-assemblies” value (listed as AAAAAAD) was “hollow tubular structures”.
With `CC(=O)N[C@@H](CC(C)C)C(=O)N[C@@H](CC(C)C)C(=O)N[C@@H](CC(C)C)C(=O)N[C@@H](CC(C)C)C(=O)N[C@@H](CC(C)C)C(=O)N[C@@H](CC(C)C)C(=O)N[C@@H](CC(=O)O)C(=O)N[C@@H](CC(=O)O)C(=O)O` [L6D2, [Acetyl]-LLLLLLDD-CO2] (Ac-LLLLLLDD-OH) the “morphology of the self-assemblies” value was “does not exhibit any nanotubular structures but rather a network of entangled rodlike micelles”.
For `CC(=O)N[C@H](C(=O)N[C@H](C(=O)N[C@H](C(=O)N[C@H](C(=O)N[C@H](C(=O)N[C@H](C(=O)N[C@@H](CC(=O)O)C(=O)N[C@@H](CC(=O)O)C(=O)O)C(C)C)C(C)C)C(C)C)C(C)C)C(C)C)C(C)C` [V6D2, [Acetyl]-VVVVVVDD-CO2] (Ac-VVVVVVDD-OH), the “morphology of the self-assemblies” value was “cylindrical morphologies”.
For `CC(=O)N[C@H](C(=O)N[C@H](C(=O)N[C@H](C(=O)N[C@H](C(=O)N[C@H](C(=O)N[C@H](C(=O)N[C@@H](CC(=O)O)C(=O)O)C(C)C)C(C)C)C(C)C)C(C)C)C(C)C)C(C)C` [V6D, [Acetyl]-VVVVVVD-CO2] (Ac-VVVVVVD-OH), the “morphology of the self-assemblies” value was “cylindrical morphologies”.
